The text below walks through data of ChEMBL document CHEMBL5728524, “Apoptosis signal-regulating kinase inhibitors and uses thereof” (2021).

Molecules are shown by their SMILES.

The target in the experiment is T1, Mitogen-activated protein kinase kinase kinase 5 (Homo sapiens, UniProt Q99683).
T1 sequence (Q99683 whole entry): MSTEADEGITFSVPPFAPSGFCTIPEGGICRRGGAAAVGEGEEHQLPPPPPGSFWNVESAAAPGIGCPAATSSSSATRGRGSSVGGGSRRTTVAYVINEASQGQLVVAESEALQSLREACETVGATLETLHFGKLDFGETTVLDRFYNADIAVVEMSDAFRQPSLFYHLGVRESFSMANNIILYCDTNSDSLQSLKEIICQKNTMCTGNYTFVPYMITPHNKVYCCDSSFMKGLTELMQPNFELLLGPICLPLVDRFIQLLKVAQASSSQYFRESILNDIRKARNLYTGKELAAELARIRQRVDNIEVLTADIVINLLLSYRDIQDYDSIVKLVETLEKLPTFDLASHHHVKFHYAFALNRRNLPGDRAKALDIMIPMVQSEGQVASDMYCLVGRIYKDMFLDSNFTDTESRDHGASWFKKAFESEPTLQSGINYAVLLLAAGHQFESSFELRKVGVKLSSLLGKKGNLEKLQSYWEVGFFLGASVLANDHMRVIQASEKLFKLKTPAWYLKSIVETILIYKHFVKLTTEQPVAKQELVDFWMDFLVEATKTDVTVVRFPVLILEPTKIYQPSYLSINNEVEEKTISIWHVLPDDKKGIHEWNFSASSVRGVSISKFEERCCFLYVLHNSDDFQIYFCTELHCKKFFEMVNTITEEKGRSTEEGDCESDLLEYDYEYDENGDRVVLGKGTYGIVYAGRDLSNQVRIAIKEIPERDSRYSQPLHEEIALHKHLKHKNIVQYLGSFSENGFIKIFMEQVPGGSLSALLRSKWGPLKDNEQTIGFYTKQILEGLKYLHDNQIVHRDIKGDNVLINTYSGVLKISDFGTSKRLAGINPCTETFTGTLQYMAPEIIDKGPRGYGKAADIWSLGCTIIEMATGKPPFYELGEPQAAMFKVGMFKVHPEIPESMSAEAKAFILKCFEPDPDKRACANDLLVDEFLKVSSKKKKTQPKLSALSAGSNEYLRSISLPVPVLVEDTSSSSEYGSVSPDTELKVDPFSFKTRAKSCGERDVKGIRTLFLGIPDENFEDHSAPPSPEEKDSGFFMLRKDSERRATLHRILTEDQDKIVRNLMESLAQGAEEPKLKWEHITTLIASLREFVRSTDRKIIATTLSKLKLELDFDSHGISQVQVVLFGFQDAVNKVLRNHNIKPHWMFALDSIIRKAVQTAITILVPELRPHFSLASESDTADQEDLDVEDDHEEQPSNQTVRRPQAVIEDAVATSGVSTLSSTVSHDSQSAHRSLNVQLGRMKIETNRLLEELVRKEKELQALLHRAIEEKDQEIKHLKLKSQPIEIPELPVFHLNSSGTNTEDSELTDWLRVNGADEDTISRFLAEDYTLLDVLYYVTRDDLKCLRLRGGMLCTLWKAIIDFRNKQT
Kind of experiment: Biochemical Assay: The binding of compounds to ASK1 were determined using DiscoverX's proprietary technology. […] The assay is performed by combining three components: DNA-tagged ASK1 kinase; immobilized ligand; and a test compound. The ability of the test compound to compete with the immobilized ligand is measured via quantitative PCR of the DNA tag. […] The liganded beads were blocked with excess biotin and washed with blocking buffer (SeaBlock (Pierce), 1% BSA, 0.05% Tween 20, 1 mM DTT) to remove unbound ligand and to reduce nonspecific binding. […] Kds were determined using an 11-point 3-fold compound dilution series with three DMSO control points. […] The compounds were then diluted directly into the assays such that the final concentration of DMSO was 0.9%. All reactions were performed in polypropylene 384-well plate. […] The kinase concentration in the eluates was measured by qPCR. Most Kds were determined using a compound top concentration=30,000 nM. (Quantitative PCR measures a nucleic acid by following its amplification.)

On to `O=C1Nc2cccc(n2)-c2nncn2CCCCOc2ccc(-c3ccc(CCF)nc3)cc21`, for which the equilibrium dissociation constant (Kd) (commonly a measure of binding affinity in units of concentration) was < 100 nM.

As to `Cc1ncc(-c2ccc3c(c2)C(=O)Nc2cccc(n2)-c2nncn2CCCCO3)cc1F`, the equilibrium dissociation constant (Kd) was < 100 nM.
